Laboratory results from patent publication US4092420A, “Novel soft N-chloroamino alcohol derivatives exhibiting antibacterial activity” (INTERx Research Corporation, priority 1977, dated 1978).

Columns and labels:
P. aeruginosa [1] = experiment: Minimal inhibitory concentration (MIC), Example V; assay type: cell-based; details: Pseudomonas aeruginosa
Protocol: (§1) THE ANTIBACTERIAL SCREEN - EXAMPLE V
(§2) THE ANTIBACTERIAL SCREEN - EXAMPLES W - Z (Autotiter IV)
(§3) (a) Compounds. All compounds to be screened are weighed (approx. 10 mg) on the day preceding the test date. Each compound is solubilized on the day of assay in appropriate solvent and diluted automatically in the Autotiter IV with distilled water (buffer can be employed here also).
(§4) Bacteria: Staphylococcus aureas Smith (or 209), Escherichia coli AB 1932-1, 1100/B22 and Vogel, Streptococcus pyogenes C203 Salmonella typhimurium 14028, Bacillus subtilis 6051-1, Klebsiella pneumoniae 10031, Pseudomonas aeruginosa 9027, Bordetella bronchiseptica 4617 and Staphylococcus epidermidis 12228.
(§5) (c) Inocula. Prior to utilization in the Autotiter IV, all bacteria are cultured for 18-20 hr. (37° C) in tryptose phosphate broth (TP), except, S. pyogenes C203, which is cultured in Brain Heart Infusion broth plus 10% normal horse serum. Immediately prior to testing, each culture is adjusted to an optical density of 0.10 (650 nm), employing a Bausch & Lomb Spectronic 20, and diluted subsequently into double strength medium to approximately 2 × 10^5 viable organisms per ml.
(§6) 1. An automated injector system dispenses 0.05 ml of diluent (sterile H2 O or buffer) to all cups of the autotiter trays from rows 2 through 7.
(§7) 2. The loops (for sequential dilutions of the compounds are moistened by immersion into 70% ethyl alcohol. After removal of excess alcohol by blotting, the loops are moved to the first row of cups in the autotray containing 0.10 ml of the compound to be diluted and tested (usually, this initial concentration is 500 to 1000 mcg/ml, but can be varied upward or downward). The loops are lowered and sequentially transfer the diluted solutions of the compound through row 7.
(§8) Immediately after each dilution is made, each cup is automatically inoculated with 0.05 ml of the appropriate test organism. This inoculation derives from a second injector system containing the organism in double-strength medium. The total operation consists of the automatic dilution of a single compound in each of 8 rows of the Autotiter try.
(§9) After these operations, we reverse the tray and a second compound is diluted over the other one-half of the tray and inoculated, subsequently, with 8 organisms. Thus, for each Autotiter Tray, two compounds are screened against 8 different organisms at dilutions ranging from 1:2 to 1:128.
(§10) (e) Incubation. The inoculated Autotiter trays are incubated at 37° C for 18 - 20 hr. At the end of this period, each tray is examined for the presence or absence of growth (turbidity). The lowest concentration of the compound inhibiting growth is recorded as the minimal inhibitory concentration (MIC).

S. aureus = experiment: Minimal inhibitory concentration (MIC), Example V; assay type: cell-based; details: Staphylococcus aureus
Protocol: as §1, §2, §3, §4, §5, §6, §7, §8, §9, §10

K. pneumoniae = experiment: Minimal inhibitory concentration (MIC), Example V; assay type: cell-based; details: Klebsiella pneumoniae
Protocol: MINIMAL INHIBITORY CONCENTRATION OF 2-AMINO-2-METHYL-1-PROPYL
^a Minimal inhibitory concentration expressed in parts per million
sequence inhibited the test organism at the higher concentrations.
as §1
Klebsiella pneumoniae ATCC# 10031
as §2, §3, §4, §5, §6, §7, §8, §9, §10

P. aeruginosa [2] = experiment: Contact germicidal efficiency (sterilization time); assay type: cell-based, Pseudomonas aeruginosa
Protocol: (§11) CONTACT GERMICIDAL EFFICIENCY OF N-CHLORAMINES AS A FUNCTION
(§12) ^a Time intervals screened 0.5, 1, 2, 3, 4 and 5 minutes.
(§13) ^a Time intervals screened 0.5, 1, 2, 3, 4, 5, 6, 7, 8, 9 and 10
(§14) ^a Time intervals screened 0.5, 1, 2, 3, 4, and 5 minutes.
(§15) ^b Time intervals screened 0.5, 1, 2, 3, 4, 5, 6, 7, 8, 9 and 10
(§16) Immediately preceding the screen, the compound is weighed and diluted with a buffer or other solvent to give the final concentration desired. The buffer or solvent chosen depends on the conditions of the screen and could be one of the following: 0.1 M NaOAc, pH 4.6; 0.1 M NaH2 PO4, pH 7.0; 0.1 M Na2 B4 O7, pH 8.8; 35% methanol in one of the aforementioned buffers; 10% Triton × 100 in buffer, etc.
(§17) The positive chlorine concentration of the test solution is then determined iodometrically.
(§18) Media used for the Screen are Nutrient Broth, BBL# 11479 and Nutrient Agar, BBL# 11472 prepared according to label directions. The broth is dispensed in 75 ml amounts of flasks for overnight cultures and in 5 ml amounts to culture tubes for subculturing during the Screen. Agar plates are prepared as usual.
(§19) Overnight cultures are prepared by inoculating from stock cultures into the 75 ml flasks of nutrient broth and incubating for 15 hours at 37° C.
(§20) The iodometrically characterized test solution is dispensed in 5 ml amounts to seven small stoppered flasks. The organisms are screened one at a time as follows:
(§21) A 0.2 ml portion of the overnight culture is inoculated into 5 ml of 0.9% NaCl for use in controls. A 0.2 ml portion of the overnight culture is inoculated into a flask containing 5 ml of the test solution, an automatic timer is simultaneously triggered and the solution mixed. At time intervals of 30 seconds, 1, 2, 3, 4, 5, 6, 7, 8, 9, and 10 minutes a loopful of the inoculated solution is subcultured into 5 ml of sterile nutrient broth and mixed by a Vortex Genie Mixer, the high dilution serving to stop the action of the compound. At the end of the ten minute screen, the entire procedure is repeated for each of the remaining six organisms. All of the subculture tubes are incubated at 37° C and checked for signs of growth by turbidity at 24 hr., 48 hr., 3, 5, and 7 days. The earliest subculture time at which no growth is present in the subculture tube is considered the endpoint and is recorded as that time, e.g., 7 minutes.
(§22) The test solution is prepared and characterized as above but is made up at twice the concentration desired. The solution is diluted 1:1 with Rehydrated Tissue Culture Dessicated Horse Serum, Difco #5357-72 and dispensed in a 5 ml amount to a small flask. The mixture is incubated at Room Temperature for 30 minutes to allow denaturation of the compound by the serum and then screened as above.
(§23) The 5 ml mixture of serum and test solution are prepared in sequence to allow as close to 30 minutes as possible before the beginning of the screen of each organism.
as §4

B. bronchiseptica = experiment: Contact germicidal efficiency (sterilization time); assay type: cell-based, Bordetella bronchiseptica
Protocol: as §11, §12, §13, §14, §15, §16, §17, §18, §19, §20, §21, §22, §23, §4

[3] = Example X, pH 4.6, no horse serum, IV c 404 ppm (69 PPMCl+), IV g 489 ppm (143 PPMCl+)
[4] = Example X, pH 7.0, no horse serum, IV c 1886 ppm (323 PPMCl+), IV g 409 ppm (120 PPMCl+)
[5] = Example X, pH 9.3, no horse serum, IV c 1704 ppm (292 PPMCl+), IV g 319 ppm (94 PPMCl+)
[6] = Example Y, pH 4.6, in presence of horse serum, 468 ppm (80 PPMCl+)

Question: What does the source list for CC(C)(COC(=O)C(C)(C)C)NCl [IV c, 2-N-Chloroamino-2-methyl-1-propyl 2,2-dimethylproprionate]?
Answer: MIC (P. aeruginosa [1]): > 250 µg/mL; MIC (S. aureus): > 250 µg/mL; MIC (K. pneumoniae): > 250 µg/mL; Sterilization Time (P. aeruginosa [2]; [3]): 0.5 min; Sterilization Time (P. aeruginosa [2]; [4]): 1 min; Sterilization Time (P. aeruginosa [2]; [5]): 1 min; Sterilization Time (P. aeruginosa [2]; [6]): > 10 min; Sterilization Time (B. bronchiseptica; [3]): 0.5 min; Sterilization Time (B. bronchiseptica; [4]): 1 min; Sterilization Time (B. bronchiseptica; [5]): 1 min; Sterilization Time (B. bronchiseptica; [6]): > 10 min
